Experiment [1] in a line: Binding affinity at purified Hsp90 by DELFIA assay.
Experiment [2] concerns KPL4. The experiment can be described thus: Inhibition of Hsp90 in human KPL4 cells assessed as depletion of ErbB2 level after 40 hrs. The format is cell-based.
For experiment [3], the system named is KPL4. Kind of experiment: Inhibition of Hsp90 in human KPL4 cells assessed as depletion of Raf-1 level after 40 hrs. The experiment is classed as cell-based.
Experiment [4] concerns K562. The experiment can be described thus: Induction of human K562 cells differentiation. The format is functional, cell-based.
Experiment [5] deals with HCT-116. The experiment can be described thus: Growth inhibition of human HCT116 cells. The format is functional.
The test system of experiment [6] is DLD-1. Kind of experiment: Growth inhibition of human DLD1 cells. The format is functional.
Experiment [7] relates to A549. Kind of experiment: Growth inhibition of human A549 cells. The experiment is classed as functional.
Experiment [8] is described as follows: Growth inhibition of human KPL4 cells. The format is functional.

As a reminder, the EC50 is the concentration that produces a half-maximal response. A low value points to a more potent agent. What is called GI50 is the concentration giving 50% growth inhibition. Regarding `COc1c(O)cc2cc1C[C@@H](C)C[C@H](OC)[C@H](O)[C@@H](C)/C=C(\C)[C@H](OC(N)=O)[C@@H](OC)CC/C=C(\C)C(=O)N2` [REBLASTATIN], the EC50 in experiment [1] was determined as 2.3 nM; in experiment [4], 760 nM. Besides, the MEC in experiment [2] and in experiment [3] was 0.33 µM throughout. The GI50 in experiment [5] amounted to 500 nM; in experiment [6], 2080 nM; in experiment [7] it was 2720 nM; in experiment [8] it was 450 nM.

Regarding `C=CCNC1=C2C[C@@H](C)C[C@H](OC)[C@H](O)[C@@H](C)/C=C(\C)[C@H](OC(N)=O)[C@@H](OC)/C=C\C=C(/C)C(=O)NC(=CC1=O)C2=O` [TANESPIMYCIN], the MEC in experiment [2] and in experiment [3] was 0.03 µM in each case. The compound further yielded a GI50 in experiment [8] of 7 nM.

`C[C@@H]1C[C@H]2O[C@@H]2/C=C\C=C\C(=O)Cc2c(Cl)c(O)cc(O)c2C(=O)O1` [RADICICOL] came in with an EC50 in experiment [1] of 0.8 nM. Also, the GI50 in experiment [5] came to 58 nM; in experiment [6], 76 nM; in experiment [7] it was 110 nM.

For the compound `COC1=C2C[C@@H](C)C[C@H](OC)[C@H](O)[C@@H](C)/C=C(\C)[C@H](OC(N)=O)[C@@H](OC)/C=C\C=C(/C)C(=O)NC(=CC1=O)C2=O` [GELDANAMYCIN], in experiment [1], the half-maximal effective concentration (EC50) stood at 57 nM. Moreover, the values for the MEC in experiment [2] and in experiment [3] were 0.11 µM and 0.33 µM, respectively. In addition, the concentration for 50% growth inhibition (GI50) in experiment [5] was determined as 21 nM; in experiment [6], 37 nM; in experiment [7], 64 nM; in experiment [8] it was 59 nM.

Take `CO[C@H]1C[C@H](C)Cc2cc(O)cc(c2)NC(=O)/C(C)=C/CC[C@H](OC)[C@@H](OC(N)=O)/C(C)=C/[C@H](C)[C@H]1O`: the EC50 came out at 2.2 nM in experiment [1] and 1900 nM in experiment [4]. Also, the MEC in experiment [2] and in experiment [3] was 1 µM throughout. Moreover, the GI50 in experiment [5] amounted to 780 nM; in experiment [6], 2350 nM; in experiment [7], 2730 nM; in experiment [8], 730 nM.

Turning to `CO[C@H]1C[C@H](C)Cc2cc(cc(O)c2O)NC(=O)/C(C)=C/CC[C@H](OC)[C@@H](OC(N)=O)/C(C)=C/[C@H](C)[C@H]1O`, the EC50 came out at 6 nM in experiment [1] and 21000 nM in experiment [4]. In addition, the MEC in experiment [2] and in experiment [3] was 10 µM each time. For the same compound, the GI50 in experiment [5] was 8910 nM; in experiment [6], 9400 nM; in experiment [7], 10300 nM; in experiment [8] it was 4330 nM.

Consider `COc1c2cc(cc1OC(C)=O)NC(=O)/C(C)=C/CC[C@H](OC)[C@@H](OC(N)=O)/C(C)=C/[C@H](C)[C@@H](O)[C@@H](OC)C[C@H](C)C2`, for which the EC50 came out at 20.8 nM in experiment [1] and 230 nM in experiment [4]. The MEC turned out to be 0.33 µM in experiment [2] and 0.11 µM in experiment [3]. For the same compound, the GI50 was 610 nM in experiment [5], 3520 nM in experiment [6], 3550 nM in experiment [7] and 180 nM in experiment [8].

For `CO[C@H]1C[C@H](C)Cc2cc(O)cc(c2)NC(=O)/C=C/CC[C@H](OC)[C@@H](OC(N)=O)/C(C)=C/[C@H](C)[C@H]1O`, the results for the concentration for a half-maximal effect (EC50) in experiment [1] and in experiment [4] were 14.7 nM and 11000 nM, respectively. In addition, the MEC in experiment [2] and in experiment [3] was 3.3 µM throughout. Further, the concentration for 50% growth inhibition (GI50) is above 10000 nM in experiment [5], above 10000 nM in experiment [6], above 10000 nM in experiment [7] and 3390 nM in experiment [8].

The values are drawn from ChEMBL document CHEMBL1141505, “Conformational significance of EH21A1-A4, phenolic derivatives of geldanamycin, for Hsp90 inhibitory activity” (Bioorg Med Chem Lett, 2008).
